Measurements: US6518423B1, “Benzopiperidine derivatives” (Eisai Co., Ltd., priority 1996, dated 2003)
Like-named read-outs stand apart in the source and are kept apart here.

Tests used:
[1] = test system: Carrageenin-induced Rat Pleurisy; test: Effect on carrageenin-induced rat pleurisy; assay type: in vivo; settings: total cell count in pleural exudate 5 hours after carrageenin; for inhibition in vivo at 30 mg/kg / inhibition in vivo at 10 mg/kg: Rattus norvegicus, po, 5 h, read-out: Inhibitory ratio (%); for inhibition in vivo at 30 mg/kg: dose 30 mg/kg orally 30 minutes before carrageenin
Procedure: Effect on Carrageenin-induced Rat Pleurisy
200 μl of a carrageenin solution (10 mg/ml in physiological saline) was intrathoracically injected into rats. Five hours thereafter, blood of the animals was collected from the abdominal aorta under etherization so as to induce death from blood loss. The exudate was taken up from the thoracic cavity and weighed with a single-pan balance. Further, the exudate was diluted with Turk's solution and the cells were counted by using a counting chamber. Next the total cell count was calculated by multiplying the cell count by the exudate volume. Thus the inhibitory ratio was calculated by taking the total cell count with the administration of carrageenin as 100% and that with the administration of physiological saline as 0%. Each test compound was suspended in a 0.5% solution of methylcellulose and orally administered at a dose of 5 ml/kg 30 minutes before the injection of carrageenin.

ICAM-1 = test: Effect on the expression of ICAM-1 in human cultured umbilical cord endothelial cells (TNF-stimulated, ELISA); assay type: cell-based; settings: 1 ng/ml TNF, expression with TNF = 100%, without TNF = 0%, read-out: IC50 (50% inhibitory concentration of ICAM-1 expression)
Procedure: Effect on the Expression of ICAM-1 in Human Cultured Umbilical Cord Endothelial Cells
Examination was made on the effect on the expression of ICAM-1 which is one of adhesion molecules expressed on the surfaces of cultured endothelia cells. The endotheliall cells were suspended in an MCDB131 medium containing 10% of fetal calf serum and pipetted into a 96-well culture plate (10,000 cells/well). After culturing at 37° C. in the presence of 5% of carbon dioxide for 2 days, 1 ng/ml of a tumor necrosis factor (TNF) and a test compound were added to the 96-well culture plate. After culturing at 37° C. in the presence of 5% of carbon dioxide for 4 hours and then washing with a phosphate buffer once, 0.05% of glutaraldehyde was added thereto. Six minutes thereafter, the plate was washed twice and 1 μg/ml of a mouse antihuman ICAM-1 antibody was added thereto. After allowing to stand for 1 hour, it was washed twice and a peroxidase-labeled sheep antimouse immunoglobulin antibody was added thereto. After allowing to stand for 1 hour, it was washed twice and a color developing substrate for peroxidase (o-phenylenediamine) was added thereto. After allowing to stand at room temperature for 10 minutes, a 1 N solution of sulfuric acid was added thereto. Then the absorbance at 490 nm was measured with the use of an absorptiometer for 96-well plate. The value thus obtained was employed as an indication of the ICAM-1 expression.

[2] = Homo sapiens, Endothelial cell, 4 h
[3] = dose 10 mg/kg orally 30 minutes before carrageenin

For `c1cncc(NCc2ccc3c(c2)Nc2nccnc2S3)c1` [Example 901, 8-[N-(Pyridin-3-yl)aminomethyl]-10H-pyrazino[2,3-b][1,4]benzothiazine], the inhibition in vivo at 30 mg/kg [1] was 38% and the IC50 (ICAM-1; [2]) was 1800 nM.
For `CS(=O)(=O)NC1CCN(Cc2ccc3c(c2)Nc2nccnc2S3)CC1` [Example 402], the inhibition in vivo at 10 mg/kg [1, 3] was 57% and the IC50 (ICAM-1; [2]) was 320 nM.
Compound `OC(c1cccnc1)c1ccc2c(c1)Nc1nccnc1S2` (centres unmarked) [Example 1145] has an inhibition in vivo at 10 mg/kg [1, 3] of 29% and an IC50 (ICAM-1; [2]) of 770 nM.
For `CC(CCC1CCN(Cc2ccc3c(c2)Nc2nccnc2S3)CC1)C(=O)O` (centres unmarked) [Example 729], the inhibition in vivo at 10 mg/kg [1, 3] was 64% and the IC50 (ICAM-1; [2]) was 1300 nM.
`N#C/N=C(\N)Cc1ccc2c(c1)Nc1nccnc1S2` [Example 1487, N^2-Cyano-(10H-pyrazino[2,3-b][1,4]benzothiazin-8-yl)acetamidine] gave an inhibition in vivo at 30 mg/kg [1] of 32% and an IC50 (ICAM-1; [2]) of 670 nM.
`O=C(O)C1CC2(CCN(Cc3ccc4c(c3)Nc3nccnc3S4)CC2)C1` [Example 686] gave an inhibition in vivo at 10 mg/kg [1, 3] of 71% and an IC50 (ICAM-1; [2]) of 900 nM.
`O=C(O)CC1C2CCCC1CN(Cc1ccc3c(c1)Nc1nccnc1S3)C2` (stereo not drawn) [Example 15, (syn)-[3-(10H-Pyrazino[2,3-b][1,4]benzothiazin-8-ylmethyl)-3-azabicyclo[3.3.1]non-9-yl]acetic acid] showed an inhibition in vivo at 10 mg/kg [1, 3] of 64% and an IC50 (ICAM-1; 4 hours) of 2300 nM.
`O=C(O)C1C2CCC1CN(Cc1ccc3c(c1)Nc1nccnc1S3)C2` (centres unmarked) [Example 73] gave an inhibition in vivo at 10 mg/kg [1, 3] of 74% and an IC50 (ICAM-1; [2]) of 600 nM.
`O=C(O)CC1C2CCC1CN(Cc1ccc3c(c1)Nc1nccnc1S3)C2` (centres unmarked) [Example 71] was tested, and the inhibition in vivo at 10 mg/kg [1, 3] was 94% and the IC50 (ICAM-1; [2]) was 800 nM.
Compound `O=C(O)CC1CC2(CCN(Cc3ccc4c(c3)Nc3nccnc3S4)CC2)C1` [Example 677] has an inhibition in vivo at 10 mg/kg [1, 3] of 76% and an IC50 (ICAM-1; [2]) of 900 nM.
`CC1C(C)C2CN(Cc3ccc4c(c3)Nc3nccnc3S4)CC1C2CC(=O)O` (stereo not drawn) [Example 24, (−)-(anti)-(6R*,7R*)-[3-(10H-Pyrazino[2,3-b][1,4]benzothiazin-8-ylmethyl)-6,7-dimethyl-3-azabicyclo[3.2.1]oct-8-yl]acetic acid] was tested, and the “Inhibitory ratio (%)” value ([1]; dose 10 mg/kg orally 30 minutes before carrageenin, 10 mg/kg) was 54% and the IC50 (ICAM-1; 4 hours) was 4100 nM.
Compound `CC(C)(O)c1ncnc2c1ncn2Cc1ccc2c(c1)Nc1nccnc1S2` [Example 1439] has an inhibition in vivo at 30 mg/kg [1] of 77% and an IC50 (ICAM-1; [2]) of 490 nM.
Compound `O=C(O)C1CC2CC3CN(Cc4ccc5c(c4)Nc4nccnc4S5)CC(C2)C31` (centres unmarked) [Example 106] has an inhibition in vivo at 10 mg/kg [1, 3] of 46% and an IC50 (ICAM-1; [2]) of 2800 nM.
With `CC(C(=O)O)C1C2CCCC1CN(Cc1ccc3c(c1)Nc1nccnc1S3)C2` (centres unmarked) [Example 83] the inhibition in vivo at 10 mg/kg [1, 3] was 34% and the IC50 (ICAM-1; 4 hours) was 2800 nM.
For `CC1CC(C)C2CN(Cc3ccc4c(c3)Nc3nccnc3S4)CC1C2CCC(=O)O` (centres unmarked) [Example 101], the inhibition in vivo at 10 mg/kg [1, 3] was 48% and the IC50 (ICAM-1; [2]) was 2600 nM.
`O=C(O)Cc1ccc(C2CCN(Cc3ccc4c(c3)Nc3nccnc3S4)CC2)cc1` [Example 659] showed an inhibition in vivo at 10 mg/kg [1, 3] of 20% and an IC50 (ICAM-1; [2]) of 710 nM.
